From patent US8148372B2 (AstraZeneca AB, priority 2008, dated 2012) come the findings set out here.

SMILES strings stand for the structures. In brackets after ≈: the same amount, converted by molar mass. A value given as a limit tells only on which side of the number the result lay.

For series [1], the target named is T1, human mGluR2 (Homo sapiens, UniProt Q14416).
T1 construct: expressed in transfected cells; host or cells: CHO cells, stably transfected; membranes
In words: [35S]-GTPγS binding assay, membranes from CHO cells stably expressing human mGluR2. Format: biochemical. Particulars: for Emax: 0.5 h, Emax relative to the maximum glutamate effect, 1 μM glutamate, read-out: Hu GTPgS Median Top Effect; for EC50: allosteric activator activity in presence of 1 μM glutamate, CHO membranes, human mGluR2, read-out: Hu GTPgS EC50. As to the method:
A [^35S]-GTPγS binding assay was used to functionally assay mGluR2 receptor activation. The allosteric activator activity of compounds at the human mGluR2 receptor were measured using a [^35S]-GTPγS binding assay with membranes prepared from CHO cells that stably express the human mGluR2. The assay is based upon the principle that agonists bind to G-protein coupled receptors to stimulate GDP-GTP exchange at the G-protein. Since [^35S]-GTPγS is a non-hydrolyzable GTP analog, it can be used to provide an index of GDP-GTP exchange and, thus, receptor activation. The GTPγS binding assay therefore provides a quantitative measure of receptor activation.
Membranes were prepared from CHO cells stably transfected with human mGluR2. Membranes (30 μg protein) were incubated with test compound (3 nM to 300 μM) for 15 minutes at room temperature prior to the addition of 1 μM glutamate, and incubated for 30 min at 30° C. in 500 μl assay buffer (20 mM HEPES, 100 mM NaCl, 10 mM MgCl2), containing 30 μM GDP and 0.1 nM [^35S]-GTPγS (1250 Ci/mmol). Reactions were carried out in triplicate in 2 ml polypropylene 96-well plates. Reactions were terminated by vacuum filtration using a Packard 96-well harvester and Unifilter-96, GF/B filter microplates. The filter plates were washed 4×1.5 ml with ice-cold wash buffer (10 mM sodium phosphate buffer, pH 7.4). The filter plates were dried and 35 μl of scintillation fluid (Microscint 20) was added to each well. The amount of radioactivity bound was determined by counting plates on the Packard TopCount. Data was analyzed using GraphPad Prism, and EC50 and Emax values (relative to the maximum glutamate effect) were calculated using non-linear regression.

The nature of series [2]: Solubility in pH 7.4 phosphate buffer. Format: physicochemical. Particulars: aqueous buffer, thermodynamic from solid, equilibration 24 h at 25° C., HPLC-UV and LC-MSMS. The procedure: Solubility was determined in pH 7.4 phosphate buffer after equilibration for 24 h at 25° C. and HPLC-UV and LC-MSMS were used for quantitation.
Series [3] has as its target hERG ion channel (Homo sapiens, UniProt Q12809). The series can be described thus: hERG activity (process of Bridgland-Taylor et al.). Format: cell-based. As to the method:
hERG activity was assessed using the process described by Bridgland-Taylor, M. H., et al, J. Pharm. Tox. Methods 54 (2006) 189-199.

T1 sequence (Q14416 19-872): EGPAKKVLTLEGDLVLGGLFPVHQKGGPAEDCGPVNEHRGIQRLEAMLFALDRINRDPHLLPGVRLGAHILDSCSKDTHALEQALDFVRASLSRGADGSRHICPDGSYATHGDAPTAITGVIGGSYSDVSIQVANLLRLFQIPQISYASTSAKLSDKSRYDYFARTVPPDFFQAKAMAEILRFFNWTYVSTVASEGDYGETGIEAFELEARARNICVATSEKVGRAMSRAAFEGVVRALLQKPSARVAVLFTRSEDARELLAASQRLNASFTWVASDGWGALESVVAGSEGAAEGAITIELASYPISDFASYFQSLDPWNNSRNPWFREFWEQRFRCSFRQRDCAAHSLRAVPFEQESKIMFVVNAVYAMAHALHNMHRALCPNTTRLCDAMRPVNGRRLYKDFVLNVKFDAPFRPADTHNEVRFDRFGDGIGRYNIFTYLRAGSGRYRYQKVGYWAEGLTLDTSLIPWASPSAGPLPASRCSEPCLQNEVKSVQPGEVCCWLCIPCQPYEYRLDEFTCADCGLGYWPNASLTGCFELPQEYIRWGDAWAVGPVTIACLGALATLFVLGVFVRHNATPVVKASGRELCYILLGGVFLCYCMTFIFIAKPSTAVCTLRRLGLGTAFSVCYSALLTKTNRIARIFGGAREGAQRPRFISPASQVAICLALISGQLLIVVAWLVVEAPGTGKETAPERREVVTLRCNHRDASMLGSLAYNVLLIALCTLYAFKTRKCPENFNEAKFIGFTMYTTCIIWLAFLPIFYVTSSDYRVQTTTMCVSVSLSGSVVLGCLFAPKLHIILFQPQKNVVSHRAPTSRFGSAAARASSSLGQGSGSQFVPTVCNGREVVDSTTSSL
Chain of hERG ion channel (Q12809 whole entry): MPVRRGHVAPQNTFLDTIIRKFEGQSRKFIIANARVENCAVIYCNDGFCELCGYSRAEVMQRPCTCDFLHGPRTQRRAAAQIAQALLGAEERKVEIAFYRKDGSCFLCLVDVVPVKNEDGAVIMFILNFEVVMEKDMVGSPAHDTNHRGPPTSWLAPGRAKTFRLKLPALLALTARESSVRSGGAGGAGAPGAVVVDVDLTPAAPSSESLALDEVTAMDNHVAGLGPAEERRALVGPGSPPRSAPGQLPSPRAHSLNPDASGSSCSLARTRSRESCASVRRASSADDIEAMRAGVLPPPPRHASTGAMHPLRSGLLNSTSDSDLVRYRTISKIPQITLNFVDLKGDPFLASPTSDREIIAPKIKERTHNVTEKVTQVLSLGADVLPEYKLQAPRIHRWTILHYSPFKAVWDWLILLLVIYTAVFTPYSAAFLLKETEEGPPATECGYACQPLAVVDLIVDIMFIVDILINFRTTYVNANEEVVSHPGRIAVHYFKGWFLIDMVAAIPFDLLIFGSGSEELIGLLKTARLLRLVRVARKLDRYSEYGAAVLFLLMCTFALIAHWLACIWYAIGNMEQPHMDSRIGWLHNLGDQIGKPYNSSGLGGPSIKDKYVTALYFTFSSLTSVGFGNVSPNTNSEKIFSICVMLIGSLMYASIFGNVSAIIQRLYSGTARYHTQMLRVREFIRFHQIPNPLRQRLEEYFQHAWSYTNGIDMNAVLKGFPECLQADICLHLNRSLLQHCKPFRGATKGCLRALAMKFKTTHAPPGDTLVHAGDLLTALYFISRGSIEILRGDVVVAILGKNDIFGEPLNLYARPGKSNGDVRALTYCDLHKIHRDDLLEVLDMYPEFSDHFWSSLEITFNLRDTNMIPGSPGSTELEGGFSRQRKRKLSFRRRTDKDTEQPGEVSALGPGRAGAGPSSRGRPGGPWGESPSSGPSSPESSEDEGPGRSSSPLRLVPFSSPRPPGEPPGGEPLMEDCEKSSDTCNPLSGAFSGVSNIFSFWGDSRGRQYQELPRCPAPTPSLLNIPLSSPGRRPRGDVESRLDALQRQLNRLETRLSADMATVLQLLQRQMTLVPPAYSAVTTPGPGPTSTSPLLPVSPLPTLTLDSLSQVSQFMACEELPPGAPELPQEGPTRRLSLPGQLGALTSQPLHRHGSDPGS

`C[C@@H](C1CC1)N1Cc2cc(-c3cc(C(=O)N(C)C)no3)cc(Cl)c2C1=O` [Example 1, 5-(7-chloro-2-((S)-1-cyclopropylethyl)-1-oxo-2,3-dihydro-1H-isoindolin-5-yl)-N,N-dimethylisoxazole-3-carboxamide] yielded a melting point of 143.5 °C. For the same compound, in series [1], the Emax stood at 127% and the EC50 came to 64 nM. The concentration in solution in series [2] (solubility at 24 h) was 33.4 µM (≈ 12.5 µg/mL). The same compound displayed an IC50 in series [3] of over 33000 nM.
On the same counts, the results for `CNC(=O)c1cc(-c2cc(Cl)c3c(c2)CN([C@@H](C)C2CC2)C3=O)on1` [Example 2, 5-(7-chloro-2-((S)-1-cyclopropylethyl)-1-oxo-2,3-dihydro-1H-isoindolin-5-yl)-N-methylisoxazole-3-carboxamide] are 212.3 °C, 114%, 600 nM, 6.82 µM (≈ 2.45 µg/mL) and 21000 nM.
